Laboratory results reported in paper PMC7970697, “Inhibition and Induction by Poziotinib of Different Rat Cytochrome P450 Enzymes In Vivo and in an In Vitro Cocktail Method” (Frontiers in Pharmacology, 2021).

Assay: in vivo
Details: for MRT last: MRT(0–t); for MRT inf: MRT(0–∞); for half-life: t1/2z; for CL/F: CLz/F; for Vd/F: Vz/F
Experimental: Samples were analyzed by a UPLC-MS/MS system equipped with a triple quadrupole mass spectrometer (Waters Corp., Milford, MA, United States) and Acquity UPLC BEH C18 column (1.7 μm, 2.1 × 50 mm) at 40°C. The mobile phase consisted of acetonitrile (A) and 0.1% formic acid (B) with a linear gradient elution at 0.4 ml/min for 3 min.
Twelve male Sprague-Dawley rats (230 ± 20 g) were randomly divided into treated and control groups, with 6 in each group. […] The supernatant was mixed with 200 μL of acetonitrile and 20 μL of 0.5 μg/ml diazepam (IS), vortexed for 30 s, centrifuged at 13,000 rpm for 5 min, and the supernatant was injected into the UPLC-MS/MS system for analysis.
Pharmacokinetic parameters were calculated using DAS software (Version 3.2.8). SPSS software (version 16.0; SPSS Inc., Chicago, IL, United States) was used to analyze the significance of differences between the main pharmacokinetic parameters. p < 0.05 was considered statistically significant. GraphPad (version 8.0; GraphPad Software Inc., San Diego, CA, United States) was used to calculate IC50 and plot the plasma concentration-time curves and inhibition plots (type of inhibition, time- and concentration-dependence).

[1] = male, Sprague-Dawley, rat, in vivo, po, 10 mg/kg
[2] = male, Sprague-Dawley, rat, in vivo, po, 10 mg/kg, Tmax
[3] = male, Sprague-Dawley, rat, plasma, po, 10 mg/kg
[4] = male, Sprague-Dawley, rat, plasma, po, 10 mg/kg, Control group: oral probe cocktail only (10 mg/kg; tolbutamide 1 mg/kg), rats, n = 6
[5] = male, Sprague-Dawley, rat, plasma, po, 10 mg/kg, Treated group: oral probe cocktail (10 mg/kg; tolbutamide 1 mg/kg) after 7 days oral poziotinib 5 mg/kg, rats, n = 6
[6] = male, Sprague-Dawley, rat, plasma, po, 10 mg/kg, Cmax, Treated group: oral probe cocktail (10 mg/kg; tolbutamide 1 mg/kg) after 7 days oral poziotinib 5 mg/kg, rats, n = 6
[7] = rats, poziotinib 5 mg/kg 7 days vs probes only
[8] = rats, poziotinib 5 mg/kg 7 days vs probes only (Discussion)
[9] = male, Sprague-Dawley, rat, in vivo, po, Control group: oral probe cocktail only (10 mg/kg; tolbutamide 1 mg/kg), rats, n = 6
[10] = male, Sprague-Dawley, rat, in vivo, po, Treated group: oral probe cocktail (10 mg/kg; tolbutamide 1 mg/kg) after 7 days oral poziotinib 5 mg/kg, rats, n = 6
[11] = male, Sprague-Dawley, rat, in vivo, po, 10 mg/kg, Control group: oral probe cocktail only (10 mg/kg; tolbutamide 1 mg/kg), rats, n = 6
[12] = male, Sprague-Dawley, rat, in vivo, po, 10 mg/kg, Treated group: oral probe cocktail (10 mg/kg; tolbutamide 1 mg/kg) after 7 days oral poziotinib 5 mg/kg, rats, n = 6

With `CC(NC(C)(C)C)C(=O)c1cccc(Cl)c1` (stereo not shown) [Bupropion] the AUC(0-t) [1] was 405 ± 87.3 ng·h/mL, the “AUC(0–∞)” value [1] was 421.07 ± 94.21 µg·h/L and the “MRT(0–t)” value [1] was 2.37 ± 0.53 h. For the same compound, the “MRT(0–∞)” value [1] was 2.87 ± 1.15 h, the Tmax [1] was 27.6 ± 17.4 min and the t1/2z [1] was 2.51 ± 1.34 h. The AUC(0-inf) [1] was 613 ± 130 ng·h/mL, the MRT last [1] was 3.33 ± 0.84 h and the MRT inf [1] was 4.34 ± 1.58 h. For the same compound, the Tmax [2] was 45 ± 16.2 min, the half-life [1] was 201 ± 72.6 min and the AUC(0-t) [3] was 565 ± 92.5 ng·h/mL. For the same compound, the CL/F [4] was 412 mL/min/kg, the CL/F [5] was 281 mL/min/kg and the Cmax (male, Sprague-Dawley, rat, plasma, po, 10 mg/kg, Cmax, Control group: oral probe cocktail only (10 mg/kg; tolbutamide 1 mg/kg), rats, n = 6) was 170 ± 60.1 ng/mL. It also gave a Cmax [6] of 173 ± 60.8 ng/mL, a Vd/F [4] of 85.4 ± 37.7 L/kg and a Vd/F [5] of 81.8 ± 38.3 L/kg. For the same compound, the “AUC(0–t) fold higher in treated than control group” value [7] was 1.39 fold, the “AUC(0–∞) fold higher in treated than control group” value [7] was 1.46 fold and the “CLz/F fold lower in treated than control group” value [7] was 1.47 fold. The “MRT(0–t) fold higher in treated than control group” value [7] was 1.41 fold, the “Tmax fold higher in treated than control group” value [7] was 1.63 fold and the “Vz/F fold lower in treated than control group” value [7] was 1.04 fold. The “AUC(0–t) of treated group as fold of control group value” [8] was 1.40 fold and the “CLz/F of treated group as fold of control group value” [8] was 0.68 fold.

Compound `COc1ccc2c(c1)[C@]13CCCC[C@@H]1[C@H](C2)N(C)CC3` [Dextromethorphan] has an AUC(0-t) (male, Sprague-Dawley, rat, in vivo, po, AUC(0–t), Control group: oral probe cocktail only (10 mg/kg; tolbutamide 1 mg/kg), rats, n = 6) of 575 ± 77.7 ng·h/mL, an AUC(0-t) (male, Sprague-Dawley, rat, in vivo, po, AUC(0–t), Treated group: oral probe cocktail (10 mg/kg; tolbutamide 1 mg/kg) after 7 days oral poziotinib 5 mg/kg, rats, n = 6) of 640 ± 197 ng·h/mL and an AUC(0-inf) [9] of 586 ± 79.3 ng·h/mL. It also gave an AUC(0-inf) [10] of 722 ± 231 ng·h/mL, a CL/F [9] of 289 mL/min/kg and a CL/F [10] of 250 mL/min/kg. The Cmax (male, Sprague-Dawley, rat, in vivo, po, Cmax, Control group: oral probe cocktail only (10 mg/kg; tolbutamide 1 mg/kg), rats, n = 6) was 152 ± 57.7 ng/mL, the Cmax (male, Sprague-Dawley, rat, in vivo, po, Cmax, Treated group: oral probe cocktail (10 mg/kg; tolbutamide 1 mg/kg) after 7 days oral poziotinib 5 mg/kg, rats, n = 6) was 153 ± 42.3 ng/mL and the MRT last [9] was 3.12 ± 0.37 h. The MRT last [10] was 3.54 ± 0.51 h, the MRT inf [9] was 3.35 ± 0.47 h and the MRT inf [10] was 5.19 ± 2.68 h. It also gave a Tmax (male, Sprague-Dawley, rat, in vivo, po, Tmax, Control group: oral probe cocktail only (10 mg/kg; tolbutamide 1 mg/kg), rats, n = 6) of 62.4 ± 33.6 min, a Tmax (male, Sprague-Dawley, rat, in vivo, po, Tmax, Treated group: oral probe cocktail (10 mg/kg; tolbutamide 1 mg/kg) after 7 days oral poziotinib 5 mg/kg, rats, n = 6) of 94.8 ± 55.2 min and a Vd/F [9] of 49 ± 10.7 L/kg. For the same compound, the Vd/F [10] was 75.5 ± 33.1 L/kg, the half-life [9] was 119 ± 25.8 min and the half-life [10] was 223 ± 125 min. The “difference in main pharmacokinetic parameters between treated and control group (in words)” value [7] was “no significant differences”.

Work on `Cc1ncc2n1-c1ccc(Cl)cc1C(c1ccccc1F)=NC2` [Midazolam] yielded an AUC(0-t) (male, Sprague-Dawley, rat, in vivo, po, 10 mg/kg, AUC(0–t), Control group: oral probe cocktail only (10 mg/kg; tolbutamide 1 mg/kg), rats, n = 6) of 1350 ng·h/mL, an AUC(0-t) (male, Sprague-Dawley, rat, in vivo, po, 10 mg/kg, AUC(0–t), Treated group: oral probe cocktail (10 mg/kg; tolbutamide 1 mg/kg) after 7 days oral poziotinib 5 mg/kg, rats, n = 6) of 1280 ng·h/mL and an AUC(0-inf) [11] of 1360 ng·h/mL. It also gave an AUC(0-inf) [12] of 1310 ng·h/mL, a CL/F [11] of 128 mL/min/kg and a CL/F [12] of 139 mL/min/kg. The Cmax (male, Sprague-Dawley, rat, in vivo, po, 10 mg/kg, Cmax, Control group: oral probe cocktail only (10 mg/kg; tolbutamide 1 mg/kg), rats, n = 6) was 868 ± 251 ng/mL, the Cmax (male, Sprague-Dawley, rat, in vivo, po, 10 mg/kg, Cmax, Treated group: oral probe cocktail (10 mg/kg; tolbutamide 1 mg/kg) after 7 days oral poziotinib 5 mg/kg, rats, n = 6) was 582 ± 296 ng/mL and the MRT last [11] was 1.58 ± 0.23 h. For the same compound, the MRT last [12] was 2.01 ± 0.43 h, the MRT inf [11] was 1.62 ± 0.24 h and the MRT inf [12] was 2.44 ± 1.12 h. The Tmax (male, Sprague-Dawley, rat, in vivo, po, 10 mg/kg, Tmax, Control group: oral probe cocktail only (10 mg/kg; tolbutamide 1 mg/kg), rats, n = 6) was 19.8 ± 7.8 min, the Tmax (male, Sprague-Dawley, rat, in vivo, po, 10 mg/kg, Tmax, Treated group: oral probe cocktail (10 mg/kg; tolbutamide 1 mg/kg) after 7 days oral poziotinib 5 mg/kg, rats, n = 6) was 34.8 ± 20.4 min and the Vd/F [11] was 18.6 ± 5.95 L/kg. It also gave a Vd/F [12] of 32.8 ± 20.8 L/kg, a half-life [11] of 102 ± 33 min and a half-life [12] of 160 ± 83.4 min. For the same compound, the “difference in main pharmacokinetic parameters between treated and control group (in words)” value [7] was “not significant”.

With `CCOc1ccc(NC(C)=O)cc1` [Phenacetin] the Cmax (Control group: oral probe cocktail only (10 mg/kg; tolbutamide 1 mg/kg), rats, n = 6) was 2,869.22 ± 783.32 µg/L, the AUC(0-t) [1] was 6320 ng·h/mL and the “MRT(0–t)” value [1] was 1.46 ± 0.22 h. The Tmax [1] was 45 ± 16.2 min, the t1/2z [1] was 0.55 ± 0.15 h and the MRT last [1] was 1.41 ± 0.13 h. It also gave an MRT inf [1] of 1.46 ± 0.15 h, a Tmax [2] of 32.4 ± 15 min and a half-life [1] of 48 ± 7.2 min. The AUC(0-t) [3] was 2770 ng·h/mL, the CL/F [4] was 30.7 mL/min/kg and the CL/F [5] was 66.5 mL/min/kg. For the same compound, the Cmax [6] was 1490 ng/mL, the Vd/F [4] was 1.57 ± 0.9 L/kg and the Vd/F [5] was 4.77 ± 2.26 L/kg. For the same compound, the “AUC (0–t) reduced by, treated vs control group” value [7] was 56.08%, the “AUC (0–∞) reduced by, treated vs control group” value [7] was 55.81% and the “CLz/F increased by, treated vs control group” value [7] was 116.85%. The “Cmax reduced by, treated vs control group” value [7] was 48.06%, the “Vz/F increased by, treated vs control group” value [7] was 203.82% and the “t1/2 increased by, treated vs control group” value [7] was 45.45%.
